From patent US10138282B2, “Peptide antagonist of LL-37” (INDIANA UNIVERSITY RESEARCH AND TECHNOLOGY CORPORATION, priority 2014, dated 2018)
“Also recorded” adds a separate entry of the source. Where no end group is shown, it is not given here.

Tests used:
[1] = Dynamic light scatter spectroscopy, hydrodynamic radius; format: physicochemical; settings: for Hydrodynamic radius (nm) pH 5.8 / Hydrodynamic radius (nm) pH 7.4: 1.0 μM peptide; for Hydrodynamic radius (nm) pH 5.8: phosphate buffer pH 5.8; for Hydrodynamic radius (nm) pH 7.4: phosphate buffer pH 7.4; for pH-dependent dissociation of peptide particles, in words: acidification of phosphate buffer
Description: The hydrodynamic radii of LL-37 and other peptides were monitored by a Zetasizer Nano-S instrument (Malvern Instruments). All measurements were taken with 1 μM of peptide dissolved in phosphate buffer adjusted to the desired pH at 22° C.

[2] = system: poly(I:C); assay: Fluorescence polarization, peptide binding to poly(I:C)
Description: (§1) Peptide binding to poly(I:C) was analyzed by monitoring fluorescence polarization using the Synergy H1 microplate reader (BioTek). Fluorescein-labeled LL-37 was titrated to a 100 μL solution containing poly(I:C) and phosphate buffers at different pHs. Interactions between LL-37 and other peptides were analyzed using LL-37 labeled at the N-terminus with fluorescein (0.1 μM), and peptides were titrated from 1 nM to 1000 nM in phosphate buffer at pH 7.0. Interaction between poly(I:C) and different peptides was determined by titrating fluorescein-labeled poly(I:C) (0.1 μM) with peptides added to final concentrations of 10 to 500 nM in phosphate buffer at pH 7.4. All polarization assays were performed in triplicate.
LL-37 accompanies dsRNA to endosomes containing TLR3. However, it is unknown whether LL-37 will release the dsRNA in endosomes. Johansson et al. (1998) have previously determined that a neutral pH is required for the activity of LL-37. We seek to determine whether LL-37 binding to dsRNA can be affected by pH.

[3] = target: T1, FPRL-1 receptor (Homo sapiens, UniProt P25090); assay: IL-6 production in BEAS-2B cells knocked down with siRNA (FPRL-1, EGFR, control); format: cell-based; settings: for IL-6 production, peptide with poly(I:C), in words: knockdown of either FPRL-1 or EGFR; for IL-6 production, peptide added along with LL-37 and poly(I:C), in words: siRNA to FPRL-1 or nonspecific control
T1 construct: a human lung epithelial cell line that expresses endogenous FPRL-1; endogenous in cells; host or cells: BEAS-2B
T1 sequence (P25090 1-351): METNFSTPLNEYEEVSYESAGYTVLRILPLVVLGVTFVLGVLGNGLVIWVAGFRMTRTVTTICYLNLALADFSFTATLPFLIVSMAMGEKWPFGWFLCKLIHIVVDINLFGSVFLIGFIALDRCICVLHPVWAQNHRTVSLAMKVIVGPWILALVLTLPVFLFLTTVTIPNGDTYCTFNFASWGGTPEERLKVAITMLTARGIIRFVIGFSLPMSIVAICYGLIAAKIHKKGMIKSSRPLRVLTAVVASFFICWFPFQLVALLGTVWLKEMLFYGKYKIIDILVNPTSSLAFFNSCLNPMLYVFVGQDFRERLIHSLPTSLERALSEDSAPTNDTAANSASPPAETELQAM
Description: BEAS-2B cells were seeded at 2×10^6 cells per 6-well plate for 6 h prior to transfection with 30 nM of a pool of three siRNAs from Santa Cruz Biotechnology. Transfections were done using Lipofectamine 2000.
Cells were grown on poly-L-lysine (Life Technologies). The level of target mRNA was analyzed using qRT-PCR and normalized to the levels of GAPDH mRNA. The sequences of the primers will be made available upon request. Poly(I:C) was added 48 h after siRNA transfection and IL-6 levels in the culture media were collected 24 h later.
LL-37's enhancement of TLR3 signaling required trafficking of LL-37/poly(:C) to endosomes via the FPRL-1 receptor. Therefore, we examined whether LL-29 used the FPRL-1 receptor to enter cells. siRNA was used to knock down the expression of either FPRL-1, EGFR, or TLR3. […] Co-localization of fLL-37 and rpIC was reduced to less than a third of the control. […] Knockdowns performed with siRNAs to either a nonspecific control or EGFR had no effect on the enhancement of IL-6 production.
Will LL-29 affect the use of the FPRL-1 receptor by the LL-37/poly(I:C) complex? BEAS-2B cells knocked down for FPRL-1 were treated with LL-37 along with additional concentrations of LL-37, Pentamide, LL-29, Peptide A, or LL8-37 (FIG. 6C). Signaling by TLR3 was determined by the amount of IL-6 secreted in the cell culture media. A control siRNA had no effect on WT LL-37/poly(I:C) enhancement of IL-6 production.
LL-37 uses the Formyl peptide receptor-like 1 (FPRL-1) receptor to deliver nucleic acids into endosomes, where activation of the Toll-like receptors that recognize nucleic acids takes place (Singh et al., 2014). We sought to determine whether the LL-37 orthologs from other mammals could also use the FPRL-1 in the human BEAS-2B cells to deliver dsRNA. BEAS-2B cells were treated with poly(I:C) along with the peptides and the peptides from pig, sheep, rabbit, and mouse had reduced ability to use the FPRL-1 to activate IL-6 production.

[4] = system: TLR4 signaling; assay: IL-6 production (ELISA) in BEAS-2B cells induced with LPS; format: cell-based, human; settings: for IL-6 production (%) LPS-depend.: BEAS-2B cells induced with 1.0 μg/ml of LPS, LL-37 100
Description: (§2) IL-6 production was quantified by ELISA using the OptEIA™ kit (BD Biosciences). A typical assay used 2×10^4 BEAS-2B cells/well grown for 24 h in flat bottom 96-well plates. Poly(I:C) was added to a final concentration of 0.13 μg/ml. Antimicrobial peptides were added to the cell culture medium to a final concentration of 3 μM unless specified otherwise. All ELISA results shown were performed in triplicate and in at least three independent experiments.
(§3) To better define how residues in LL-37 contribute to function, several variants derived from LL-37 were tested for: 1) repression of TLR4 signaling by LPS, 2) enhancement of TLR3 signaling by poly(I:C), and 3) binding to LL-37. Signaling by TLR3 and TLR4 were monitored using ELISA to detect IL-6 secreted into the medium of BEAS-2B cells.

[5] = system: TLR3 signaling; assay: IL-6 production (ELISA) in BEAS-2B cells induced with poly(I:C); format: cell-based, human; settings: for Enhancement of TLR3 signaling / poly(I:C)-induced IL-6, in words: BEAS-2B cells; for IL-6 production (%) poly(I:C)-depend.: BEAS-2B cells induced with 130 ng/ml of poly(I:C), LL-37 100
Description: as §2, §3

[6] = target: T2, f-LL37 (Homo sapiens, UniProt P49913); assay: Fluorescence polarization, interaction of peptides with fluorescein-labeled LL-37; format: binding
T2 sequence (P49913 134-170 limits assumed): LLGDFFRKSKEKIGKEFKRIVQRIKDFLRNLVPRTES
Description: as §1

[7] = system: LL-37 enhancement of TLR3 signaling; assay: Antagonism of LL-37/poly(I:C)-enhanced IL-6 production in BEAS-2B cells; format: cell-based, human; settings: peptide added with LL-37/poly(I:C), BEAS-2B cells
Description: as §2
We examined whether LL-29 could affect the enhancement of TLR3 signaling by WT LL-37/poly(I:C). An increasing amount of LL-29 along with a constant amount of LL-37/poly(I:C) was used to assess IL-6 production in BEAS-2B cells. […] That is, LL-29 abrogated LL-37's ability to enhance TLR3 signaling. That is, LL-29 is an example of a peptide antagonist of LL-37 function.

[8] = system: Escherichia coli ATCC 25922; assay: MIC assay, broth microdilution (CLSI); format: cell-based; settings: E. coli ATCC 25922; peptide: None
Description: MIC assays were performed according to protocols for broth microdilution according to the Clinical Laboratory Standards Institute (CLSI, 2015. Methods for Dilution Antimicrobial susceptibility tests for bacterial that grow aerobically; Approved standard—tenth edition).

[9] = system: Reovirus dsRNA, Reo S4; assay: IL-6 production in BEAS-2B cells in the presence of Reovirus dsRNA Reo S4; format: cell-based, human
Description: as §2
Herein, we analyzed the LL-37 orthologs from Rhesus monkeys, pig, sheep, guinea pigs, rabbit, as well as mouse (FIG. 14A). All peptides were chemically synthesized and assayed for the induction of inflammatory cytokine IL-6 in the presence of the double-stranded RNA mimic, poly(I:C) or the Reovirus dsRNA, Reo S4 (FIGS. 14B and 14C). […] Importantly, all LL-37 orthologs tested had the ability to reduce IL-6 production in response to LPS (FIG. 14E).

In the case of “LLGNFFRKSKQKIGKQFKRIVQRIKNFLRNLVPRTQS (not fully specified) [Pentamide, five acidic residues in LL-37 replaced with neutral-polar residues, reference compound]”, the “Hydrodynamic radius (nm) pH 5.8” value [1] is reported as 1990 nm, the “Hydrodynamic radius (nm) pH 7.4” value [1] is reported as 1106 nm and the “pH-dependent dissociation of peptide particles, in words” value (shortened to “pH-dependent dissociation”) [1] is reported as “failed to dissociate”. For the same compound, the “Binding to poly(I:C)/dsRNA in fluorescent polarization assay, in words” value (“Binding to poly(I:C)/dsRNA” for short) [2] was “failed to bind dsRNA”, the “IL-6 production, peptide with poly(I:C), in words” value [3] was “did not enhance IL-6 production” and the “IL-6 production, peptide added along with LL-37 and poly(I:C), in words” value (shortened to “IL-6 production, peptide added along”) [3] was “had no effect on IL-6 production unless FPRL-1 expression was reduced”. For the same compound, the “Suppression of TLR4 signaling / LPS-induced IL-6, in words” value ([4]; BEAS-2B cells) was “failed to suppress TLR4 signaling”, the “IL-6 production (%) LPS-depend.” value [4] was 400 ± 32% and the “Enhancement of TLR3 signaling / poly(I:C)-induced IL-6, in words” value [5] was “failed to enhance TLR3 signaling”. The “IL-6 production (%) poly(I:C)-depend.” value [5] was 31 ± 0%.
For “LLGDFFRKSKEKIGKEFKRIVQRIKDFLRKLVPQPEQ (listed as Homo sapiens) [Peptide A]”, the “Hydrodynamic radius (nm) pH 5.8” value [1] was 956 nm, the “Hydrodynamic radius (nm) pH 7.4” value [1] was 1990 nm and the “pH-dependent dissociation” value [1] was “reduced for the ability to dissociate under acidic pH conditions”. The “Binding to poly(I:C)/dsRNA” value [2] was “debilitated for binding RNA”, the “IL-6 production, peptide added along” value [3] was “resulted in a reduction in IL-6 levels” and the “IL-6 production (%) LPS-depend.” value [4] was 161 ± 11%. The “Interaction with fLL-37, in words” value [6] was “retained partial interaction with fLL-37; also recorded: retain partial activity to interact with fLL-37”, the “IL-6 production (%) poly(I:C)-depend.” value [5] was 41 ± 6% and the “Antagonism of LL-37 enhancement of TLR3 signaling (IL-6), in words” value [7] was “to a lesser degree than LL-29; also recorded: can partially antagonize the enhancement of TLR3 signaling”.
With `COc1cccc2c1C(=O)c1c(O)c3c(c(O)c1C2=O)C[C@@](O)(C(=O)CO)C[C@@H]3O[C@H]1C[C@H](N)[C@H](O)[C@H](C)O1` [Doxorubicin, reference compound] the “MIC (μg/ml) of antibiotic, no peptide” value [8] was 0.5 µg/mL.
For SKEKIGKEFKRIVQRIKDFLR [LL9-29], the “Hydrodynamic radius (nm) pH 5.8” value [1] was 1281 nm, the “Hydrodynamic radius (nm) pH 7.4” value [1] was 446.5 nm and the “pH-dependent dissociation” value [1] was “failed to dissociate”. The “IL-6 production (%) LPS-depend.” value [4] was 196 ± 11%, the “Interaction with fLL-37, in words” value [6] was “did not” and the “Binding f-LL37: fold change in the fluorescence anisotropy values of f-LL-37” value ([6]; between 1.0 nM and 1000 nM of added peptide) was 2.6 ± 0.2 fold. The “Enhancement of TLR3 signaling / poly(I:C)-induced IL-6, in words” value [5] was “failed to enhance TLR3 signaling” and the “IL-6 production (%) poly(I:C)-depend.” value [5] was 31 ± 3%.
In the case of `NC[C@H]1O[C@H](O[C@H]2[C@H](O)[C@@H](O[C@H]3O[C@H](CO)[C@@H](O)[C@H](N)[C@H]3O)[C@H](N)C[C@@H]2N)[C@H](O)[C@@H](O)[C@@H]1O` [Kanamycin, reference compound], the “MIC (μg/ml) of antibiotic, no peptide” value [8] is reported as 4 µg/mL.
For `COc1cc(Cc2cnc(N)nc2N)cc(OC)c1OC` [Trimethoprim, reference compound], the “MIC (μg/ml) of antibiotic, no peptide” value [8] was 0.25 µg/mL.
With “RL-37: LL-37 ortholog from Rhesus monkey, SEQ ID NO: 20 (RLGNFFRKVKEKIGGGLKKVGQKIKDFLGNLVPRTAS; (1)..(37) Monkey RL-37; listed as Macaca mulatta) [reference compound]” the “Enhancement of TLR3 signaling / poly(I:C)-induced IL-6, in words” value [5] was “more similar to that of the human LL-37”.
For “SKEKIGKEFKRIVQRIKDFLRNLVPRTES ((1)..(29) LL8-37; listed as Homo sapiens)”, the “Hydrodynamic radius (nm) pH 5.8” value [1] was 615 nm, the “Hydrodynamic radius (nm) pH 7.4” value [1] was 825 nm and the “IL-6 production, peptide with poly(I:C), in words” value [3] was “did not enhance IL-6 production”. The “IL-6 production, peptide added along” value [3] was “had no effect on IL-6 production unless FPRL-1 expression was reduced”, the “IL-6 production (%) LPS-depend.” value [4] was 239 ± 21% and the “Interaction with fLL-37, in words” value [6] was “retain partial activity to interact with fLL-37”. The “IL-6 production (%) poly(I:C)-depend.” value [5] was 38 ± 3%.
With “GLLRKGGEKIGEKLKKIGQKIKNFFQKLVPQPEQ [mCRAMP, murine ortholog of LL-37, reference compound]” the “Hydrodynamic radius (nm) pH 5.8” value [1] was 1106 nm, the “Hydrodynamic radius (nm) pH 7.4” value [1] was 1718 nm and the “Binding to poly(I:C)/dsRNA” value [2] was “failed to bind dsRNA”. For the same compound, the “Enhancement of IL-6 production / signaling by Reo S4, in words” value [9] was “unable to enhance IL-6 production”, the “IL-6 production (%) LPS-depend.” value [4] was 82 ± 29% and the “Enhancement of TLR3 signaling / poly(I:C)-induced IL-6, in words” value [5] was “failed to enhance TLR3 signaling; also recorded: unable to enhance IL-6 production”. The “IL-6 production (%) poly(I:C)-depend.” value [5] was 31 ± 3%.
